Where “and” joins values, the source holds several entries; their conditions need not be identical. Equal entries are not always repeated.
What was measured:
metastatic renal cancer = assay: Javelin Renal 101 clinical trial: progression free survival, re-evaluated by angio-immune subtype; format: in vivo, human
From the text: (§1) Immunotherapy datasets: Pre-treatment TPM normalized RNA sequencing data from anti-PD1/L1 and anti-CTLA4 treated cohorts were downloaded for the studies as described in Table 1. Studies were selected based on the following criteria: >20 samples for enrichment calculation, RNA sequencing of pre-treatment biopsies, and only anti-PD1/PDL1 treated patients. Gene signature enrichment and molecular subtypes were derived as described elsewhere in the manuscript. Survival and response rates to treatment when available were compared among angio-immune clusters.
(§2) Quantification and Statistical Analysis: Unless indicated elsewhere, all visualizations were completed in GraphPad Prism 9. GraphPad Prism 9 was used for all statistical analysis. Data is presented as mean±standard error of mean. One way ANOVA was used for comparison across more than two groups. Non-parametric tests were used when data was not normally distributed. Log rank tests were used for all survival analysis. Alpha value of 0.05 was used throughout the study.
(§3) The approval of the combination of avelumab, an anti-PDL1, and axitinib, a small molecule tyrosine kinase inhibitor, for the first-line treatment of metastatic renal cancer was provided in 2020. […] Next, it was sought to ascertain if stratification by angio-immune subtypes can confer more significant differences in responses and survival.
(§4) The enrichment of the 91 angio-immune signatures was scored using RNA sequencing data from pre-treatment biopsies.
Survival was tracked across clusters to identify if angio-immune molecular subtypes can inform treatment choice in this setting.

[1] = test system: clear cell renal carcinoma; assay: Braun dataset (Checkmate 025 and Checkmate 010): overall survival, re-evaluated by angio-immune subtype; format: in vivo, human; conditions: for differences in median OS between angio-immune molecular subtypes: comparison of C1, C2 and C3 within one treatment arm
From the text: as §1, §2, §3, §4
Survival was tracked across clusters to identify if angio-immune molecular subtypes can inform treatment choice in this setting. […] To determine if patients belonging to C1, C2, and C3 derive clinical benefit from Nivolumab over everolimus, OS was tracked among angio-immune molecular subtypes across treatment arms.

[2] = all patients with pre-treatment RNA sequencing data, Braun dataset
[3] = patients in angio-immune subtype C1, Braun dataset
[4] = patients in angio-immune subtype C2, Braun dataset
[5] = patients in angio-immune subtype C3, Braun dataset

Molecule	median PFS (metastatic renal cancer; all patients with pre-treatment RNA sequencing data, Javelin Renal 101 dataset)	median PFS (metastatic renal cancer; patients in angio-immune subtype C1, Javelin Renal 101 dataset)	median PFS (metastatic renal cancer; patients in angio-immune subtype C2, Javelin Renal 101 dataset)	median PFS (metastatic renal cancer; patients in angio-immune subtype C3, Javelin Renal 101 dataset)	median OS [1, 2]	differences in median OS between angio-immune molecular subtypes [1]	clinical benefit (OS) compared to everolimus ([1]; patients in C1, p=0.6347)	clinical benefit (OS) compared to everolimus ([1]; patients in C2, p=0.0581)	median OS compared to the everolimus arm ([1]; patients in C3, p<0.0043)	median OS [1, 3]	median OS [1, 4]	median OS [1, 5]
CCN(CC)CCNC(=O)c1c(C)[nH]c(/C=C2\C(=O)Nc3ccc(F)cc32)c1C [sunitinib]	8.4 months	9.7 months	8.3 months	8.2 months	–	–	–	–	–	–	–	–
Nivolumab: an anti-PD1 therapy	–	–	–	–	25.9877 months	significant improvement in median OS	no clinical benefit	no statistically significant clinical benefit	significantly improved	16.9528 months	36.961 months and 36.96 months	29.8645 months and 29.86 months
CO[C@H]1C[C@@H]2CC[C@@H](C)[C@@](O)(O2)C(=O)C(=O)N2CCCC[C@H]2C(=O)O[C@H]([C@H](C)C[C@@H]2CC[C@@H](OCCO)[C@H](OC)C2)CC(=O)[C@H](C)/C=C(\C)[C@@H](O)[C@@H](OC)C(=O)[C@H](C)C[C@H](C)/C=C/C=C/C=C/1C [everolimus]	–	–	–	–	19.7454 months	no significant differences	–	–	–	24.6735 months	21.13 months	13.27 months

Reference: patent US20260112450A1, “METHODS FOR SELECTION OF CANCER PATIENTS FOR ANTI-ANGIOGENIC AND IMMUNE CHECKPOINT BLOCKAGE THERAPIES AND COMBINATIONS THEREOF” (Washington University, priority 2022, published 2026)
